Experiments:
SKOV3 cells = assay: SKOV3 mouse tumor xenograft model; format: in vivo; conditions: FIG. 16
H522 cells = assay: H522 mouse tumor xenograft model; format: in vivo; conditions: FIG. 15; Example 16E 5 mg/kg; Example 17B 5 mg/kg; Kadcyla 10 mg/kg; IV single dose
SNU-5 cells = assay: SNU5 mouse tumor xenograft model; format: in vivo; conditions: FIG. 13
TOV-21G cells = assay: TOV-21G mouse tumor xenograft model; format: in vivo; conditions: FIG. 14; Example 16E 5 mg/kg or 2 mg/kg; Kadcyla 10 mg/kg; IV single dose
Text: (§1) Tumor growth inhibition (% TGI) was defined as the percent difference in median tumor volumes (MTVs) between treated and control groups.
In a PR response, the tumor volume was 50% or less of its Day 1 volume for three consecutive measurements during the course of the study, and equal to or greater than 13.5 mm^3 for one or more of these three measurements. In a CR response, the tumor volume was less than 13.5 mm3 for three consecutive measurements during the course of the study. An animal with a CR response at the termination of a study was additionally classified as a tumor-free survivor (TFS). Animals were monitored for regression responses.
Female NCr nu/nu were inoculated subcutaneously with TOV-21G cells (n=10 for each group). Test compounds or vehicle were dosed IV as a single dose on day 1 or as indicated. Tumor size was measured at the times indicated in FIGS. 8 to 18 using digital calipers. Tumor volume was calculated and was used to determine the delay in tumor growth. Mice were sacrificed when tumors reached a size of 800 to 1500 mm^3. Tumor volumes are reported as the mean±SEM for each group.

[1] = tested on: phosphorylated AKT in BT474 cells; assay: Ligand-independent HER2 signaling in BT474 cells, phospho-AKT western; format: cell-based; conditions: 10 μg/ml antibody, 4 hours, listed as HT19B
Method: The effect of anti-HER2 antibodies on HER2 signaling in BT474 cells (ATCC, HTB-20) was determined by measuring changes in the amount of phosphorylated AKT after a 4 hour antibody treatment. BT474 cells (300,000 cells) were plated in DMEM media with 10% FBS in each well of 6 well culture dishes and grown overnight at 37° in 5% CO2 atmosphere. The media was removed and replaced with fresh media containing 10 μg/ml of test antibody and incubated for 4 hours. The cells were washed once with ice cold PBS and lysed by addition of 200 μl of buffer containing 50 mM Tris HCl, pH 7.4, 150 mM NaCl, 1% Triton X-100, cOmplete Protease Inhibitor cocktail tablets (Roche, Indianapolis, Ind.) and PhosSTOP phosphatase Inhibitor cocktail tablets (Roche, Indianapolis, Ind.). Lysates were centrifuged at 15,000 rpm for 15 minutes at 4° to remove insoluble debris. The levels of phosphorylated AKT were determined by western analysis. […] The bands corresponding to AKT, phospho-AKT, and to actin were quantified using the scanner software. Each phospho-AKT band was normalized to the total AKT band and expressed as a percentage of phospho-AKT protein from cells that were not treated with any anti-HER2 antibodies.

SKBR3 cells [2] = assay: Internalization rate with anti-HER2 antibody combination; format: cell-based
Method: For the assay, 40,000 SKBR3 cells were plated in DMEM media containing 10% FBS, in each well of three 96 well plates (black colored plates with clear bottomed wells) and allowed to attach overnight at 37° in 5% CO2. The next day the cells were treated with antibodies as follows. […] The unbound antibody was removed by washing the cells two times with ice cold media. For detection, 5 μg/ml of an Alexa 647 labelled anti-human IgG Fab fragment was added to each well in ice cold media and incubated on ice for 1 hr. The unbound secondary antibody was removed by washing each well 2 times with ice cold media. […] Each treatment was carried out in triplicate. One set of wells were treated with the Alexa 647 labelled anti-human IgG monovalent Fab fragment alone, and the fluorescence measured in these wells was used to subtract background fluorescence.
One plate was left on ice to determine the time 0 values for each treatment, and the other plates were incubated at 37° C. After 1.5 hours, one plate from 37° C., and the time 0 plate, were washed 2 times with ice cold PBS and scanned using the 680 nm channel of a Licor Odyssey scanner. The fluorescence measured in each well is used as the total fluorescence for each treatment. The cells were then acid washed 2 times with 100 mM glycine, 50 mM KCl, and 20 mM […], pH2.2, then washed two times with ice cold PBS to remove the surface bound antibodies. The plates were scanned again to determine the amount of internalized fluorescence in each well. The 24 hour plates were analyzed the same way the next day.

[3] = target: T1, HER2 protein in SKBR3 cells (Homo sapiens, UniProt P04626); assay: HER2 degradation, western analysis; format: cell-based; conditions: 4 hours; for HER2 remaining: 10 μg/ml each, combined with trastuzumab and pertuzumab; for full length HER2, percentage of untreated cells: 10 μg/ml, test antibody alone or in combination with trastuzumab
T1 construct: endogenous in cells; host or cells: SKBR3
Method: The effect of anti-HER2 antibodies on HER2 degradation in SKBR3 cells was determined by western analysis after antibody treatment. 300,000 SKBR3 cells were plated in DMEM media with 10% FBS in each well of 6 well culture dishes and grown overnight at 37° in 5% CO2 atmosphere. The media was removed and replaced with fresh media containing 10 μg/ml of each antibody and incubated for 4 hours. The cells were washed once with ice cold PBS and lysed by addition of 200 μl of buffer containing 50 mM Tris HCl, pH 7.4, 150 mM NaCl, 1% Triton X-100, cOmplete Protease Inhibitor cocktail tablets (Roche, Indianapolis, Ind.) and PhosSTOP phosphatase Inhibitor cocktail tablets (Roche, Indianapolis, Ind.). Lysates were centrifuged at 15,000 rpm for 15 minutes at 4° to remove insoluble debris. […] The separated proteins were transferred to a nitrocellulose membrane on a semi-dry electrophoretic transfer system (Bio-Rad, Transblot system) for 30 minutes at 10 volts in transfer buffer (Life Technologies, Cat.# NP0006) containing 10% methanol. […] After the incubation the membrane was washed 3 times with 10 ml TTBS and then incubated for 1 hour with secondary antibodies: a goat anti-rabbit IgG conjugated to IRdye® 800CW (Li-Cor, Cat.#926-32211) and a goat anti-mouse IgG conjugated to IRdye® 680RD (Li-Cor, Cat.#926-68070) both diluted 1:10,000 in blocking buffer. The membrane was again washed 3 times with 10 ml TTBS and scanned on a Li-Cor Odyssey scanner. The bands corresponding to full length HER2 protein and to actin were quantified using the scanner software. Each HER2 band was normalized to the actin band and expressed as a percentage of HER2 protein from cells that were not treated with any anti-HER2 antibodies.

Calu-3 cells = assay: Calu-3 mouse tumor xenograft model; format: in vivo; conditions: FIG. 17, 5 mg/kg IV single dose at day 1
NCI-N87 cells = assay: NCI-N87 mouse tumor xenograft model; format: in vivo; conditions: FIG. 12; Example 16F […] single dose day 1; trastuzumab 15 mg/kg + pertuzumab 15 mg/kg weekly for 3 weeks
SKBR3 cells [4] = assay: HER2 internalization in SKBR3 cells by fluorescence microscopy; format: cell-based; conditions: 90 minutes, in combination with trastuzumab-Alexa-647 and pertuzumab
Method: The effect of a combination of anti-HER2 antibodies on the HER2 internalization in SKBR3 cells was investigated by fluorescence microscopy. […] SKBR3 cells were seeded in 4 chamber microscope slides and allowed to attach by overnight growth in DMEM media (ATCC, Manassas, Va., Cat.#30-2002) with 10% fetal bovine serum (FBS) (Gibco®, Life Technologies, Grand Island, N.Y., Cat.#16140-071) at 37° in 5% CO2. […] The location of trastuzumab was visualized using fluorescence microscope.

BT474 tumor fragments = assay: BT474 mouse tumor xenograft model; format: in vivo; conditions: FIG. 20; 5 mg/kg or 2 mg/kg IV single dose at day 1
MAXF_1162 HER2 3+ = MAXF_1162 HER2 3+ patient derived xenograft model; format: in vivo; conditions: FIG. 19, n=10
Method: as §1
(§2) Treatment efficacy was determined from the incidence and magnitude of regression responses of the tumor size observed during the study. […] In a PR response, the tumor volume was 50% or less of its Day 1 volume for three consecutive measurements during the course of the study, and equal to or greater than 13.5 mm^3 for one or more of these three measurements. In a CR response, the tumor volume was less than 13.5 mm3 for three consecutive measurements during the course of the study. An animal with a CR response at the termination of a study was additionally classified as a tumor-free survivor (TFS). Animals were monitored for regression responses.

BRE-0333 HER2 1+ = BRE-0333 HER2 1+ patient derived xenograft model; format: in vivo; conditions: FIG. 18; 3 mg/kg IV single dose; n=8
Method: as §1, §2

[5] = tested on: low HER2-expressing breast and gastric cancer models; assay: Low HER2-expressing breast and gastric cancer models; format: in vivo; conditions: conjugate single doses of 1 mg/kg or […]; Kadcyla at doses of 10 mg/kg and above
[6] = in vivo
[7] = Pharmacokinetics and tolerability in non-human primates; conditions: therapeutic doses
HER2-driven tumor models = assay: HER2-driven tumor models, combination with trastuzumab and pertuzumab; format: in vivo
[8] = with Trastuzumab and Pertuzumab, 0 hr
[9] = with Trastuzumab and Pertuzumab, 24 hrs
[10] = with Trastuzumab and Pertuzumab, […]

Substance	Percent internalized (SKBR3 cells [2]; antibody alone, 0 hr) [%]	Percent internalized (SKBR3 cells [2]; antibody alone, 24 hrs) [%]	Percent internalized (SKBR3 cells [2]; antibody alone, […]) [%]	Percent internalized (SKBR3 cells [2]; [8]) [%]	Percent internalized (SKBR3 cells [2]; [9]) [%]	Percent internalized (SKBR3 cells [2]; [10]) [%]	Percent internalized (SKBR3 cells [2]; with Trastuzumab, 0 hr) [%]	Percent internalized (SKBR3 cells [2]; with Trastuzumab, 24 hrs) [%]	Percent internalized (SKBR3 cells [2]; with Trastuzumab, […]) [%]	HER2 remaining [3] [%]	also measured
XMT 1519-(EG2-MI-(10 kDa PHF-BA-(AF-HPA-Ala))) [Example 16E]	–	–	–	–	–	–	–	–	–	–	complete responses (number of animals) (SKOV3 cells; 5 mg/kg IV single dose, n=10): 10; regressions (SKOV3 cells; 5 mg/kg IV single dose, n=10): 100%; tumor response (H522 cells): tumor retardation; tumor free survivors (SNU-5 cells; 2 mg/kg IV single dose): 100%; tumor free survivors (SNU-5 cells; 5 mg/kg IV single dose): 100%; tumor response (TOV-21G cells): tumor retardation
XMT 1520: affinity matured fully human anti-HER2 IgG1 antibody, heavy chain SEQ ID NO: 7, light chain SEQ ID NO: 8	2	78	14	3	101	89	2	100	23	31	AKT phosphorylation, percentage of untreated cells [1]: about 30%; full length HER2, percentage of untreated cells [3]: 68%
XMT 1519-(EG2-MI-(10 kDa PHF-BA-(AF-HPA-Ala))) [Example 16F]	–	–	–	–	–	–	–	–	–	–	remained tumor free (number of animals) (Calu-3 cells; Day 60): six; complete responses (number of animals) (Calu-3 cells; n=10): eight; partial responses (number of animals) (Calu-3 cells; n=10): two; regression responses (Calu-3 cells; n=10): 100%; partial response out of ten (NCI-N87 cells): one
XMT 1519: fully human anti-HER2 IgG1 monoclonal antibody, heavy chain SEQ ID NO: 5, light chain SEQ ID NO: 6	2	83	–	2	88	83	2	107	–	42	effect on HER2 internalization and localization (SKBR3 cells [4]): promotes the internalization and trafficking of HER2 to the lysosomes
rituximab-(EG2-MI-(10 kDa PHF-BA-(AF-HPA-Ala))) [Example 17B, reference compound]	–	–	–	–	–	–	–	–	–	–	tumor response (SKOV3 cells; Kadcyla 10 mg/kg, Example 17B 5 mg/kg, IV single dose): did not attain the threshold for therapeutic activity; tumor response (H522 cells): did not attain the threshold for therapeutic activity
XMT 1517: fully human anti-HER2 IgG1 monoclonal antibody, heavy chain SEQ ID NO: 1, light chain SEQ ID NO: 2	4	83	11	4	107	–	3	106	17	40	–
XMT 1519-(EG2-MI-(10 kDa PHF-BA-(AF-HPA-Ala))) [Example 16H]	–	–	–	–	–	–	–	–	–	–	tumor response (BT474 tumor fragments): complete tumor regressions; regression responses and tumor free survivors (MAXF_1162 HER2 3+; 1 mg/kg IV single dose at day 1): 100%; regression responses and tumor free survivors (MAXF_1162 HER2 3+; 3 mg/kg IV single dose at day 1): 100%; tumor response (BRE-0333 HER2 1+): tumor retardation
XMT 1519-(EG2-MI-(PHF-BA-(AF-HPA-Ala)))	–	–	–	–	–	–	–	–	–	–	tumor response [5]: complete regression; pharmacokinetic profile [6]: excellent pharmacokinetic profile; tolerability [7]: well tolerated; efficacy in combination with trastuzumab and pertuzumab (HER2-driven tumor models): synergistic efficacy
XMT 1518: affinity matured fully human anti-HER2 IgG1 antibody, heavy chain SEQ ID NO: 3, light chain SEQ ID NO: 4	–	88	16	2	–	90	2	106	41	20	full length HER2, percentage of untreated cells [3]: 78%

From patent publication US9738720B2, “Monoclonal antibodies against HER2 epitope and methods of use thereof” (Mersana Therapeutics, Inc., priority 2014, dated 2017)
